Test results from ChEMBL document CHEMBL1201862, “PubChem BioAssay data set” (2004).
The source made the active and inactive calls.

Assays:
HEK293 [1] = assay: cells; assay type: functional, cell-based; conditions: Homo sapiens
[2] = target: T1, Nuclear receptor subfamily 0 group B member 1 (Homo sapiens, UniProt P51843); assay: Luminescence-based cell-based high throughput dose response assay for inhibitors of the orphan nuclear receptor subfamily 0, group B, member 1 (DAX1; NR0B1). [Related pubchem assays (depositor defined):AID504766, AID504790]; assay type: functional
T1 sequence (P51843 whole entry): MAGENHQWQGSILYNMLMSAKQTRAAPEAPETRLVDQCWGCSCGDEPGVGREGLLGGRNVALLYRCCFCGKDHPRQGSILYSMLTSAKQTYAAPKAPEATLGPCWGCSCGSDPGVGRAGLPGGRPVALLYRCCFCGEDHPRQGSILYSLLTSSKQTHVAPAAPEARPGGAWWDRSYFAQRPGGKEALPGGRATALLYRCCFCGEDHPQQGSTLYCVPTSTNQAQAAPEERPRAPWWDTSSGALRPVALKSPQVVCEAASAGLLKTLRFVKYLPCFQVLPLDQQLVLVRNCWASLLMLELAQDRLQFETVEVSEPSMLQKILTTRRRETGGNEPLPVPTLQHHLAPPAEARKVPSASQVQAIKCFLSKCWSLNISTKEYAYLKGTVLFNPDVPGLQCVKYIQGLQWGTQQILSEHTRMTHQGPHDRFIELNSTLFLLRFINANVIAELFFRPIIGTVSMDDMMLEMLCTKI

[3] = target: Voltage-gated inwardly rectifying potassium channel KCNH2 (Homo sapiens, UniProt Q12809); conditions: Potency;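 also: confirmatory quantitative high-throughput screen measuring inhibition of hERG channel activity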
Voltage-gated inwardly rectifying potassium channel KCNH2, sequence (Q12809 whole entry): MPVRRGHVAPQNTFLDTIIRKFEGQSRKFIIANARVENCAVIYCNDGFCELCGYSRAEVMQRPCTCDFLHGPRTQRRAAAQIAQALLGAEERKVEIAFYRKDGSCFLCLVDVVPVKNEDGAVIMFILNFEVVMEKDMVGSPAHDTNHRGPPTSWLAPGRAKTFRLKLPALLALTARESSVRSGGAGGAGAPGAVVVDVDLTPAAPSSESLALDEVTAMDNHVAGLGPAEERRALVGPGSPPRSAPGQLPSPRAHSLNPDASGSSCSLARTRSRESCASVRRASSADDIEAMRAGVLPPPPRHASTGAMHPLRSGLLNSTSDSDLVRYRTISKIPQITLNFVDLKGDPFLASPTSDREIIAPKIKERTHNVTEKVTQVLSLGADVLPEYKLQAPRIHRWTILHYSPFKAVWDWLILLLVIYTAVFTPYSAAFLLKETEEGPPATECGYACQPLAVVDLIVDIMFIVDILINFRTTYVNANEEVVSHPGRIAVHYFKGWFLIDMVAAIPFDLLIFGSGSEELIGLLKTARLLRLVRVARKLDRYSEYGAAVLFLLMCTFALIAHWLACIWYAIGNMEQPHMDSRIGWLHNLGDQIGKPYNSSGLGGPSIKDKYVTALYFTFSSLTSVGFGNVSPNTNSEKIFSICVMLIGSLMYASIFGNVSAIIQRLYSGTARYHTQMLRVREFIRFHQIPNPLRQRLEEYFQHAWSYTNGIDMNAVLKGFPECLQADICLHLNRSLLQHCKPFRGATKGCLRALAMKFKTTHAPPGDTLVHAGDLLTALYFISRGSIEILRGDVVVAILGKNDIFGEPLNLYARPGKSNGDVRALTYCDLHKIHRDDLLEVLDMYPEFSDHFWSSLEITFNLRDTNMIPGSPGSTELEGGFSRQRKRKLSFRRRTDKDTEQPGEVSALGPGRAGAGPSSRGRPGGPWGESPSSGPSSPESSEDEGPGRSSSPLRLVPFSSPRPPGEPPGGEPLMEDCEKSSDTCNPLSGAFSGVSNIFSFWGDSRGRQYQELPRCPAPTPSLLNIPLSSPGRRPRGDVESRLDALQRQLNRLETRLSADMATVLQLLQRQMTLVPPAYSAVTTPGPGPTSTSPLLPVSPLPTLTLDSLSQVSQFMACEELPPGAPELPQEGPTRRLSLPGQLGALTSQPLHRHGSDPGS

[4] = target: T2, DNA repair protein RAD52 homolog (Homo sapiens, UniProt P43351); assay type: functional, biochemical
T2 sequence (P43351 whole entry): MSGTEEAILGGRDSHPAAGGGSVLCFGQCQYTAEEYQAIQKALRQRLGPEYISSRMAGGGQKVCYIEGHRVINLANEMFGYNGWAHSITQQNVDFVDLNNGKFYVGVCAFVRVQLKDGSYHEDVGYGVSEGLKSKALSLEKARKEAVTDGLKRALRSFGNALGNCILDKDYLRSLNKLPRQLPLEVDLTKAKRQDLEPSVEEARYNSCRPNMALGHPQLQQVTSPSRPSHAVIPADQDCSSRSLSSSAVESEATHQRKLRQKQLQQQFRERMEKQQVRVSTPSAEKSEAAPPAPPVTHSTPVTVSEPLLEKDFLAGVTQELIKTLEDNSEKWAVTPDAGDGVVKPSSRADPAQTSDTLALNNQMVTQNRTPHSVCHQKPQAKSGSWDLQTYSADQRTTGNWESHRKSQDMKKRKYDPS

[5] = Luminescent dose response cell-based high throughput screening assay for inhibitors of the Janus kinase 2 mutant JAK2V617F. [Related pubchem assays: 1446 (Primary screen.), 1521 (Confirmation assay.), 1486 (Counter screen.)]; assay type: functional
[6] = NIH3T3 cell viability loss – ATP luminescence, mouse fibroblasts, counter-screen, dose response (AID 2010); assay type: functional, cell-based;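 also: cells exposed to compound for about 90 hours before reading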
BJ [7] = assay: BJ-TERT-LT-ST fibroblast viability loss – cell-based, RAS-independent, luminescence, dose response (AID 1935); assay type: functional; conditions: Homo sapiens;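 also: BJ fibroblasts immortalized with TERT plus LT and ST oncogenes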
BJ [8] = assay: cells; assay type: functional, cell-based; conditions: Homo sapiens
[9] = DRD fibroblast viability loss – cell-based, non-viral oncogenic, luminescence, dose response (AID 1934); assay type: functional; conditions: Homo sapiens
[10] = viability loss in HeLa cells – cytotoxicity control for MgcRacGAP inhibitor project, dose response (AID 624300); assay type: functional
[11] = microbe, parasite or virus in culture; assay type: functional; conditions: Mycobacterium tuberculosis
[12] = target: T3, Rac GTPase-activating protein 1 (Homo sapiens, UniProt Q9H0H5); assay: blockers of MgcRacGAP-driven Rac1 GTP hydrolysis – biochemical, ADP Hunter fluorescence, primary and confirmatory, confirmation (AID 624330); assay type: functional
T3 sequence (Q9H0H5 whole entry): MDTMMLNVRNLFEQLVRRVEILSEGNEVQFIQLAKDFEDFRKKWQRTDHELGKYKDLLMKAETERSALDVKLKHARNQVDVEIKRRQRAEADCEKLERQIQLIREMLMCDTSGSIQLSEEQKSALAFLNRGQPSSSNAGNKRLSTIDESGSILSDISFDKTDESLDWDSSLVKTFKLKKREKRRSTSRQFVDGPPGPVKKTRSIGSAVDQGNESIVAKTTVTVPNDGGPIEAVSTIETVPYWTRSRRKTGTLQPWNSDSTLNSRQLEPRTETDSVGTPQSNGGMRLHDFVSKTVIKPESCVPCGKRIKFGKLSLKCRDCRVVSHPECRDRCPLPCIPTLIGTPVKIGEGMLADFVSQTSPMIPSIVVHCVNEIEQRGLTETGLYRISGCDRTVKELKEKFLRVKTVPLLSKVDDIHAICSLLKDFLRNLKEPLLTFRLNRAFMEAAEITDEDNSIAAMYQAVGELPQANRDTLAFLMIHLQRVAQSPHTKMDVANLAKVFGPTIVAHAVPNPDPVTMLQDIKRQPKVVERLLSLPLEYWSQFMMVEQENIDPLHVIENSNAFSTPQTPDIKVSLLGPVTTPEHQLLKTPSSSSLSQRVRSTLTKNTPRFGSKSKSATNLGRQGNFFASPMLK

HEK293 [13] = assay: cells; conditions: Homo sapiens
BJ [14] = assay: BJ-TERT fibroblast viability loss – cell-based, RAS-independent, luminescence, dose response (AID 1933); assay type: functional; conditions: Homo sapiens
[15] = Trypanosoma cruzi growth suppression in host cells – NIH3T3 host cells, beta-gal luminescence, confirmation (AID 2044); assay type: functional, cell-based;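 also: intracellular parasites grown in NIH/3T3 mouse fibroblasts as host cells; luminescent beta-galactosidase reporter signal from transgenic T. cruzi replicating inside host cells; inhibitors lower the luminescence signal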
HEK293 [16] = assay: cells; conditions: Homo sapiens; remark: listed apart in the source
Hexokinase-1 [17] = target: T4, Hexokinase-1 (Homo sapiens, UniProt P19367); assay: SAR analysis of small molecule inhibitors of hexokinase domain containing I (HKDC1) in the hexokinase 1 selectivity assay. [Related pubchem assays (depositor defined):AID493160, AID493190]; assay type: functional
T4 sequence (P19367 whole entry): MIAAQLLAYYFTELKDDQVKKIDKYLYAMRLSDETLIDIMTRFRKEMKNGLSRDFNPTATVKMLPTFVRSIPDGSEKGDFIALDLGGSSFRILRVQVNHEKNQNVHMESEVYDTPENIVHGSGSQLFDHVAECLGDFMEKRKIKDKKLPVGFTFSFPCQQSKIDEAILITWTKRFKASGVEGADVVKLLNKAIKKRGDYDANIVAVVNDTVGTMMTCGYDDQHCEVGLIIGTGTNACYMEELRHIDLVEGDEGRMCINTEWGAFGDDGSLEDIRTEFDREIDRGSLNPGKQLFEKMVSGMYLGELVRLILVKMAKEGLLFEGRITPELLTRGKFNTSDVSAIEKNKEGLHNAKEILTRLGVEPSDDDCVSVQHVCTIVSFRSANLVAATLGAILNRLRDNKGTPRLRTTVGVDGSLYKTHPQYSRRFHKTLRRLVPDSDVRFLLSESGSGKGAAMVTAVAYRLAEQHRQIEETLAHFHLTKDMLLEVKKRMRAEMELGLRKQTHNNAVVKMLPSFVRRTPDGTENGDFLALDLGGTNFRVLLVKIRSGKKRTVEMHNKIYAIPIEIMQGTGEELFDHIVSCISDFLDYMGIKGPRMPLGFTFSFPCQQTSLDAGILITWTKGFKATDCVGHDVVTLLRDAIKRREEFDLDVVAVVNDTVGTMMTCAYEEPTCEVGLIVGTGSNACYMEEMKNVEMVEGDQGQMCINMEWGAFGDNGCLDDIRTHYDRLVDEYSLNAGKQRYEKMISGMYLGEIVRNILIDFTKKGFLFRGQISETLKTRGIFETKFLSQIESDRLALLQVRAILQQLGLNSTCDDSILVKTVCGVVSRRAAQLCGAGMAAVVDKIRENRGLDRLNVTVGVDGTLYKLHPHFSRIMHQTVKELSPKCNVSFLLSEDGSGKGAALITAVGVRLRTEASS

Hexokinase HKDC1 [18] = target: T5, Hexokinase HKDC1 (Homo sapiens, UniProt Q2TB90); assay: SAR analysis of small molecule inhibitors of hexokinase domain containing I (HKDC1). [Related pubchem assays (depositor defined):AID493160, AID493190]; assay type: functional
T5 sequence (Q2TB90 whole entry): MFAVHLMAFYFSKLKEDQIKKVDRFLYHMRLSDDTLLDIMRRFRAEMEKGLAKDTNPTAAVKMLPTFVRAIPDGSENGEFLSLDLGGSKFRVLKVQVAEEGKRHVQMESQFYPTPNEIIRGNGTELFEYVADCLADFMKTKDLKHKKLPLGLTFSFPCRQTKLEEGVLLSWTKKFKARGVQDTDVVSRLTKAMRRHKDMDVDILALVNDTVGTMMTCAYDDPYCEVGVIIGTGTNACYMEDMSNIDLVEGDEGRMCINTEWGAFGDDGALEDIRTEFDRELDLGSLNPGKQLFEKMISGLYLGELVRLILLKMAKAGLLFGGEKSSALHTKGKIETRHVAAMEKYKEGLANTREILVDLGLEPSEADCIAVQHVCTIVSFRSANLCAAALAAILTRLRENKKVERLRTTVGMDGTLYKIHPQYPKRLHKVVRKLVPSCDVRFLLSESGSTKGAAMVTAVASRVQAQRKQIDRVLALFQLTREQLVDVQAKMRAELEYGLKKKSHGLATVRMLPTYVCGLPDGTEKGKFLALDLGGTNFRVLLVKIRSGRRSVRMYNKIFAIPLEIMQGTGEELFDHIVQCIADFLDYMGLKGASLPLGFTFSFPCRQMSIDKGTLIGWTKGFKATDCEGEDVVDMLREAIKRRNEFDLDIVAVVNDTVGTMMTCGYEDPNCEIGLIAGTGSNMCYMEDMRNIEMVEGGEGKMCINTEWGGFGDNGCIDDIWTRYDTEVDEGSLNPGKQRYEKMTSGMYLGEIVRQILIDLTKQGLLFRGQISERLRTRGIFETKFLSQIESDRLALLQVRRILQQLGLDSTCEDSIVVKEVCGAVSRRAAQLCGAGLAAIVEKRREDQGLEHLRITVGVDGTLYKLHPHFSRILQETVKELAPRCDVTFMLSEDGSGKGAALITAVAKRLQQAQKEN

[19] = target: Glycogen synthase kinase-3 beta (Homo sapiens, UniProt P49841); assay: Inhibition of Human GSK-3 beta Activity Measured in Biochemical System Using Microfluidics - 2063-05_Inhibitor_Dose_DryPowder_Activity. [Related pubchem assays (depositor defined):AID2709]
Glycogen synthase kinase-3 beta, sequence (P49841 whole entry): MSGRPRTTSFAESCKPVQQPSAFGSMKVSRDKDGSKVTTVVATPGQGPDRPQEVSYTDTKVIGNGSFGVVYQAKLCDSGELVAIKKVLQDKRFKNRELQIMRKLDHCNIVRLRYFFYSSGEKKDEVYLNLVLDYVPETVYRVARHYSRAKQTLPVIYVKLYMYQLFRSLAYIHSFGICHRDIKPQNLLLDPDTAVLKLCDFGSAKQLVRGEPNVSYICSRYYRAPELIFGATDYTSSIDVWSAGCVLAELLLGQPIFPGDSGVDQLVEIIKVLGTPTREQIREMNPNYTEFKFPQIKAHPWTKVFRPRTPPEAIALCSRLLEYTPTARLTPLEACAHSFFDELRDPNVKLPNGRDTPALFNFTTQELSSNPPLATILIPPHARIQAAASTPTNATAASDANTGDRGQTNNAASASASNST

[20] = target: Glycogen synthase kinase-3 alpha (Homo sapiens, UniProt P49840); assay: Inhibition of Human GSK-3 alpha Activity Measured in Biochemical System Using Microfluidics - 2063-06_Inhibitor_Dose_DryPowder_Activity. [Related pubchem assays (depositor defined):AID2709]
Glycogen synthase kinase-3 alpha, sequence (P49840 whole entry): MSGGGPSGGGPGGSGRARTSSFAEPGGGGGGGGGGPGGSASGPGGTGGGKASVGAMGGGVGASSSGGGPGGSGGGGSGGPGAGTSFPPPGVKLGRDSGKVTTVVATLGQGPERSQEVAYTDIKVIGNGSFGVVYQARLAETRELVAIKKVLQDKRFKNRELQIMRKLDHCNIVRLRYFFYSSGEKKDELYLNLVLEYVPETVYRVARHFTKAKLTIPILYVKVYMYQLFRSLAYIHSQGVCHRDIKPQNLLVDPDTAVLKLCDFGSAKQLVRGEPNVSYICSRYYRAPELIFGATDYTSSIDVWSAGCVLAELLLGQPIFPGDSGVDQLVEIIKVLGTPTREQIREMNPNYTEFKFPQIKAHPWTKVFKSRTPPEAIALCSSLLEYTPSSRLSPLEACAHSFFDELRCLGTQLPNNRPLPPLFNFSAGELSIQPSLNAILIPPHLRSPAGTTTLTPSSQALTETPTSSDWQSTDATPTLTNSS

Hexokinase-1 [21] = target: T4, Hexokinase-1; assay: hexokinase 1 activity inhibitors, potency – biochemical, set 2, resazurin fluorescence coupled readout, selectivity assay for HKDC1 inhibitor project, SAR follow-up (AID 588356); assay type: functional
Hexokinase HKDC1 [22] = target: T5, Hexokinase HKDC1; assay: analog inhibition of human HKDC1 activity – biochemical, set 2, SAR follow-up (AID 588355); assay type: functional
[23] = system: Streptococcus sp. 'group A'; assay: Streptococcus pyogenes SK(-)GAS viability under kanamycin – luminescence, BacTiterGlo, confirmation, counter-screen for streptokinase expression inhibitor project, dose response (AID 1900); assay type: functional, organism-based
Escherichia coli = assay: microbe, parasite or virus in culture
Streptococcus = assay: GAS UMAA2166 growth inhibition – luminescence, BacTiterGlo, counter-screen for streptokinase expression inhibitor project, dose response (AID 1915); assay type: functional, organism-based;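 also: potency for reduction of bacterial viability or growth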

## Cc1cc([N+](=O)[O-])nn1CCCC(=O)NC1CCCCC1
HEK293 [1]
  IC50: > 67.5 µM (inactive)
[2]
  IC50: > 67.5 µM (inactive)

## CCCCCC/C(C=O)=C\c1ccccc1
[3]
  AC50: 0.0501 µM (inconclusive)

## Cc1cc2[nH]c3c(c[n+](C)c4ccccc34)c2cc1C
[4]
  AC50: 0.372 µM (active)
[5]
  IC50: 0.639 µM (active)
[6]
  EC50: 6.13 µM (active)
BJ [7]
  EC50: 5.36 µM (inconclusive)
BJ [8]
  EC50: 5.11 µM (inconclusive)
[9]
  EC50: 5.3 µM (active)
[10]
  CC50: 11.8 µM (active)
[11]
  CC50: 2.06 µM (active)
[12]
  IC50: 36.2 µM (active)
HEK293 [13]
  EC50: > 59.7 µM (inactive)
BJ [14]
  EC50: 3.9 µM (active)
[15]
  EC50: 0.68 µM (active)
HEK293 [16]
  EC50: > 59.7 µM (inactive)

## COc1cc2c(cc1OC)-c1cc(NCc3cccnc3)nc(=O)n1CC2
Hexokinase-1 [17]
  IC50: > 80 µM (inactive)
Hexokinase HKDC1 [18]
  IC50: > 80 µM (inactive)

## CCCCOC(=O)C1C(C)=Nc2ncnn2C1c1cccc(OC)c1OC (stereo not given)
[19]
  AC50: 0.538 µM (active)
[20]
  AC50: 0.989 µM (active)

## CC(=O)NC1C(=O)N(Cc2ccccc2)c2ccc(C)cc21 (stereo not given)
Hexokinase-1 [21]
  IC50: > 80 µM (inactive)
Hexokinase HKDC1 [22]
  IC50: > 80 µM (inactive)

## CCN1CCN(c2cc3c(cc2F)c(=O)c(C(=O)O)cn3C2CC2)CC1 [ENROFLOXACIN]
[23]
  EC50: 1.22 µM (active)
Escherichia coli
  AC50: 2.46 µM (active)
Streptococcus
  EC50: 1.04 µM (active)
